Among the data in patent US20240246979A1, “cGAS INHIBITORS” (Eli Lilly and Company, priority 2022, published 2024) are IC50 values, retold here.

Assay [1] has as its target T1, cGAS (Homo sapiens, UniProt Q8N884). The assay can be described thus: Cellular assay to measure cGAS activity (IFNb AlphaLISA in THP1 cells stimulated by RDG-Adenovirus-GFP). The class given is cell-based. Details: host or cells: THP1 cells differentiated with PMA and stimulated with RDG-Adenovirus-GFP. Conditions: PMA-differentiated THP1 cells, RDG-Adenovirus-GFP at 1000 MOI; inhibition of IFNb production as marker for cGAS activity. The essentials: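 PMA-differentiated THP1 cells were infected with RDG-Adenovirus-GFP at 1000 MOI for 4 h, then exposed overnight to test compounds. IFNb in the supernatant was quantified by AlphaLISA as a cGAS activity marker, and IC50 was fitted with a 4-parameter logistic equation.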

Assay [2] concerns the target T1, cGAS. The experiment in a line: In vitro inhibition assay of cGAS activity (cGAMP production, RapidFire mass spectrometry). Format: biochemical. Further details: Insert cDNA encoding full-length of human cGAS; His6; made in house; host or cells: E. coli BL21(DE3). Conditions: 10 nM recombinant human cGAS, 60 nM 75-bp dsDNA, 50 μM ATP, 50 μM GTP, 3 hrs. The essentials: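 His6-tagged full-length human cGAS (10 nM, E. coli-expressed) was incubated for 3 hrs at ambient temperature with 60 nM 75-bp dsDNA, 50 μM ATP and 50 μM GTP in Tris pH 7.5/MgCl2 buffer with compound dilutions. cGAMP was quantified by RapidFire mass spectrometry against an internal standard, and IC50 was obtained by 4-parameter logistic fit.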

Each structure is given as a SMILES string.

T1 sequence (Q8N884 whole entry): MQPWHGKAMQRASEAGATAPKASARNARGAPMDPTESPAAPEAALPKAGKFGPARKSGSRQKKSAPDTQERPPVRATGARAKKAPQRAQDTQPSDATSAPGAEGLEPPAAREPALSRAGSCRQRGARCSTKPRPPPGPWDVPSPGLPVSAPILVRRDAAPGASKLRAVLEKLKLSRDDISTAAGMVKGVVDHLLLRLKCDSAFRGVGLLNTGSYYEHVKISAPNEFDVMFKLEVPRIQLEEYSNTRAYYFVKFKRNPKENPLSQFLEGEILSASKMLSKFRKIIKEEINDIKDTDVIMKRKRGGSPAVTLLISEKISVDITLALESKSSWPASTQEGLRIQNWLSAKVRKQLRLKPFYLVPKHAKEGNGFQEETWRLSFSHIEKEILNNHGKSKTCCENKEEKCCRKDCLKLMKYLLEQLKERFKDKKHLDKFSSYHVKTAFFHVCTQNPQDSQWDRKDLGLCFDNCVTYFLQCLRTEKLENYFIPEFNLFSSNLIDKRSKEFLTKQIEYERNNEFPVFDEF

One may read the IC50 as the point on the concentration scale where inhibition reaches its midpoint. In the case of `COCCOc1cc(Cl)c(Cl)c2[nH]c3c(c12)C(C)C(=O)NCC3` (stereo not shown) [Example 79, 7,8-Dichloro-10-(2-methoxyethoxy)-1-methyl-3,4,5,6-tetrahydroazepino[4,5-b]indol-2(1H)-one], the IC50 in assay [1] turned out to be 591 nM; in assay [2] it was 14.2 nM.
Regarding `CC1C(=O)NCCc2c1c1c(OCCCO)cc(Cl)c(Cl)c1n2C` (stereo not shown) [Example 77, 7,8-Dichloro-10-(3-hydroxypropoxy)-1,6-dimethyl-3,4,5,6-tetrahydroazepino[4,5-b]indol-2(1H)-one], the figures for the IC50 in assay [1] and in assay [2] were 843 nM and 14.1 nM, respectively.
For `C[C@@H](O)CNc1cc(Cl)c(Cl)c2c1c1c(n2C)CCNC(=O)[C@@H]1C` (single isomer, unassigned) [Example 99] the same measures were more than 10000 nM and 1640 nM.
For `C[C@H](O)C(=O)Nc1cc(Cl)c(Cl)c2c1c1c(n2C(F)F)CCNC(=O)[C@H]1C` (single isomer, unassigned) [Example 142] the same measures were 293 nM and 29.6 nM.
As to `CN(C)C(=O)CC1CNC(=O)Cc2c1[nH]c1c(Cl)c(Cl)cc(CC#N)c21` (stereo not shown) [Example 117, 2-(7,8-Dichloro-10-(cyanomethyl)-2-oxo-1,2,3,4,5,6-hexahydroazepino[4,5-b]indol-5-yl)-N,N-dimethylacetamide], the IC50 was 1320 nM in assay [1] and 18.6 nM in assay [2].
For `CC1C(=O)NCCc2[nH]c3c(Cl)c(Cl)cc(NC4CCOC4)c3c21` (stereo in doubt) [Example 66, 7,8-Dichloro-1-methyl-10-(((R)-tetrahydrofuran-3-yl)amino)-3,4,5,6-tetrahydroazepino[4,5-b]indol-2(1H)-one] the same measures were 4150 nM and 37.5 nM.
For `COCCOc1cc(Cl)c(Cl)c2[nH]c3c(c12)[C@H](C)C(=O)NCC3(C)C` (single isomer, unassigned) [Example 184, (S)-7,8-Dichloro-10-(2-methoxyethoxy)-1,5,5-trimethyl-3,4,5,6-tetrahydroazepino[4,5-b]indol-2(1H)-one or (R)-7,8-dichloro-10-(2-methoxyethoxy)-1,5,5-trimethyl-3,4,5,6-tetrahydroazepino[4,5-b]indol-2(1H)-one] the same measures were 1370 nM and 17.4 nM.
For the molecule `CC1C(=O)NCCc2c1c1c(NCCO)cc(Cl)c(Cl)c1n2C` (single isomer, unassigned) [Example 51, 7,8-Dichloro-10-((2-hydroxyethyl)amino)-1,6-dimethyl-3,4,5,6-tetrahydroazepino[4,5-b]indol-2(1H)-one], the IC50 is 1340 nM in assay [1] and 8.34 nM in assay [2].
As for `C[C@H]1C(=O)NCCc2[nH]c3c(Cl)c(Cl)cc(NCCCO)c3c21` (single isomer, unassigned) [Example 54], the IC50 in assay [1] was found to be 5660 nM; in assay [2] it was 4250 nM.
On to `CCC1C(=O)NCCc2[nH]c3c(Cl)c(Cl)cc(NC(=O)CO)c3c21` (stereo not shown) [Example 11, N-(7,8-Dichloro-1-ethyl-2-oxo-1,2,3,4,5,6-hexahydroazepino[4,5-b]indol-10-yl)-2-hydroxyacetamide], for which the concentration for half-maximal inhibition (IC50) came out at 1760 nM in assay [1] and 45.4 nM in assay [2].
For `C[C@@H]1CNC(=O)[C@@H](C)c2c1[nH]c1c(Cl)c(Cl)cc(NCCO)c21` (single isomer, unassigned) [Example 154] the same measures were 394 nM and 12.4 nM.
For `C[C@@H]1CNC(=O)Cc2c1[nH]c1c(Cl)c(Cl)cc(-c3cnn(C)n3)c21` (single isomer, unassigned) [Example 146] the same measures were 300 nM and 27.2 nM.
Consider `CC(F)(F)C[C@@H]1CNC(=O)Cc2c1[nH]c1c(Cl)c(Cl)cc(CC#N)c21` (single isomer, unassigned) [Example 138], for which the values for the half-maximal inhibitory concentration (IC50) in assay [1] and in assay [2] were 431 nM and 8 nM, respectively.
For `COC(=O)CC1CNC(=O)Cc2c1[nH]c1c(Cl)c(Cl)cc(CC#N)c21` (stereo not shown) [Example 176, Methyl 2-(7,8-dichloro-10-(cyanomethyl)-2-oxo-1,2,3,4,5,6-hexahydroazepino[4,5-b]indol-5-yl)acetate] the same measures were 7110 nM and 38.9 nM.
For `C[C@@H]1C(=O)NCCc2[nH]c3c(Cl)c(Cl)cc(OCC(N)=O)c3c21` (single isomer, unassigned) [Example 17A] the same measures were 856 nM and 22.4 nM.
For `COCCNc1cc(Cl)c(Cl)c2c1c1c(n2C)CCNC(=O)C1C` (stereo not shown) [Example 96, 7,8-Dichloro-10-((2-methoxyethyl)amino)-1,6-dimethyl-3,4,5,6-tetrahydroazepino[4,5-b]indol-2(1H)-one] the same measures were more than 10000 nM and 18.6 nM.
On to `CCCNc1cc(Cl)c(Cl)c2[nH]c3c(c12)C(C)C(=O)NCC3` (stereo not shown) [Example 45, 7,8-Dichloro-1-methyl-10-(propylamino)-3,4,5,6-tetrahydroazepino[4,5-b]indol-2(1H)-one], for which the figures for the half-maximal inhibitory concentration (IC50) in assay [1] and in assay [2] were 2230 nM and 46.6 nM, respectively.
For the molecule `Cn1ncc(-c2cc(Cl)c(Cl)c3[nH]c4c(c23)CC(=O)NC[C@H]4CC(C)(C)O)n1` (single isomer, unassigned) [Example 104], the IC50 in assay [1] was found to be 1570 nM; in assay [2], 42.2 nM.
As for `C[C@@H]1C(=O)NC[C@H](C)c2[nH]c3c(Cl)c(Cl)cc(CC#N)c3c21` (single isomer, unassigned) [Example 151], the half-inhibitory concentration (IC50) stood at 1770 nM in assay [1] and 19.7 nM in assay [2].
Consider `Nc1cncc(-c2cc(Cl)c(Cl)c3[nH]c4c(c23)CC(=O)NCC4)n1` [Example 34, 10-(6-Aminopyrazin-2-yl)-7,8-dichloro-3,4,5,6-tetrahydroazepino[4,5-b]indol-2(1H)-one], for which the IC50 in assay [1] stood at 1730 nM; in assay [2] it was 39.5 nM.
For `CC1C(=O)NCCc2[nH]c3c(Cl)c(Cl)cc(-c4cnn(C)n4)c3c21` (stereo not shown) [Example 9, 7,8-Dichloro-1-methyl-10-(2-methyl-2H-1,2,3-triazol-4-yl)-3,4,5,6-tetrahydroazepino[4,5-b]indol-2(1H)-one] the same measures were 2160 nM and 87 nM.
For `COCC[C@H]1CNC(=O)[C@@H](C)c2c1[nH]c1c(Cl)c(Cl)cc(NCCO)c21` (single isomer, unassigned) [Example 174] the same measures were more than 10000 nM and 361 nM.
For `C[C@H]1C(=O)NCCc2[nH]c3c(Cl)c(Cl)cc(-c4cnn(C)n4)c3c21` [Example 38, (R)-7,8-Dichloro-1-methyl-10-(2-methyl-2H-1,2,3-triazol-4-yl)-3,4,5,6-tetrahydroazepino[4,5-b]indol-2(1H)-one Or (S′)-7,8-Dichloro-1-methyl-10-(2-methyl-2H-1,2,3-triazol-4-yl)-3,4,5,6-tetrahydroazepino[4,5-b]indol-2(1H)-one] the same measures were 9800 nM and 1650 nM.
On to `COCC[C@H]1CNC(=O)[C@H](C)c2c1[nH]c1c(Cl)c(Cl)cc(NCCO)c21` (single isomer, unassigned) [Example 171], for which the IC50 in assay [1] was determined as 483 nM; in assay [2], 7.84 nM.
In the case of `C[C@@H]1C(=O)NCCc2[nH]c3c(Cl)c(Cl)cc(N[C@H]4CCOC4)c3c21` (single isomer, unassigned) [Example 62], the IC50 in assay [1] worked out at 1900 nM; in assay [2], 44.5 nM.
For `C[C@@H](O)CNc1cc(Cl)c(Cl)c2[nH]c3c(c12)[C@@H](C)C(=O)NCC3` (single isomer, unassigned) [Example 56] the same measures were 6230 nM and 3560 nM.
For `NC(=O)COc1cc(Cl)c(Cl)c2[nH]c3c(c12)CC(=O)NCC3` [Example 20, 2-((7,8-Dichloro-2-oxo-1,2,3,4,5,6-hexahydroazepino[4,5-b]indol-10-yl)oxy)acetamide] the same measures were more than 10000 nM and 132 nM.
Regarding `C[C@H](O)COc1cc(Cl)c(Cl)c2[nH]c3c(c12)[C@H](C)C(=O)NCC3` (single isomer, unassigned) [Example 84], the IC50 is 1430 nM in assay [1] and 44.2 nM in assay [2].
For `C[C@@H]1C(=O)NC[C@H](C)c2[nH]c3c(Cl)c(Cl)cc(CC#N)c3c21` (single isomer, unassigned) [Example 152] the same measures were 5310 nM and 948 nM.
For `Cn1ncc(-c2cc(Cl)c(Cl)c3[nH]c4c(c23)CC(=O)NCC4)n1` [Example 2, 7,8-Dichloro-10-(2-methyl-2H-1,2,3-triazol-4-yl)-3,4,5,6-tetrahydroazepino[4,5-b]indol-2(1H)-one] the same measures were 819 nM and 20.5 nM.
For `C[C@H](O)C(=O)Nc1cc(Cl)c(Cl)c2c1c1c(n2C)CCNC(=O)[C@H]1C` (single isomer, unassigned) [Example 94] the same measures were 663 nM and 24.7 nM.
With `CC1C(=O)NCCc2[nH]c3c(Cl)c(Cl)cc(NCc4cocn4)c3c21` (stereo in doubt) [Example 58, (S′)-7,8-Dichloro-1-methyl-10-((oxazol-4-ylmethyl)amino)-3,4,5,6-tetrahydroazepino[4,5-b]indol-2(1H)-one Or (R)-7,8-Dichloro-1-methyl-10-((oxazol-4-ylmethyl)amino)-3,4,5,6-tetrahydroazepino[4,5-b]indol-2(1H)-one], the figures for the concentration for half-maximal inhibition (IC50) in assay [1] and in assay [2] were 577 nM and 16.5 nM, respectively.
